Measurements as given in US12492170B2, “Tetrahydro-1H-benzazepine compound as potassium channel modulator, preparation method and use thereof” (Shanghai Zhimeng Biopharma Inc., priority 2019, dated 2025).
Read-outs that look alike come from different tables or passages of the source. Values belong to the compound of their own block, whether it stands above or below them.

Legend:
KCNQ2 potassium channel = target: T1, KCNQ2 potassium channel (Homo sapiens, UniProt O43526); assay: Potassium ion channel opener activity test (FDSS/μCELL detection, FluxOR); type: cell-based
T1 construct: expressed in transfected cells; host or cells: CHO (CHO-KCNQ2, kept under G418 selection)
Protocol: After the digestion was completed, 7 mL culture medium (90% DMEM/F12+10% FBS+500 μg/mL G418) was added to neutralize, centrifugated for 3 minutes at 800 rpm, the supernatant was aspirated, then 5 mL culture medium was added to resuspend, and then the cells were counted.
Cell plating: the density to 3×10^4/well was adjusted according to the results of cell counting. After standing at room temperature for 30 minutes, placed in a 37° C. CO2 incubator and incubated overnight for 16-18 hours. The cell density reached about 80%.
Fluorescent dye incubation: discarded the cell culture medium, 80 μL/well loading buffer was added, and incubated in the dark at room temperature for 60 minutes.
Compound incubation: discarded the loading buffer, 80 μL/well prepared compound solution was added, incubated in the dark at room temperature for 20 minutes.
Fluorescence data collection: FDSS/μCELL instrument was used for real-time fluorescence signal recording, excitation wavelength was 480 nm, emission wavelength was 540 nm, recorded 1 times per second, recorded for 10 seconds after baseline and started to add 20 μL/well stimulation buffer, and then continued to record until the end of 180 seconds.
20 mM compound stock solution in DMSO was prepared, 10 μL of 20 mM compound stock solution was took into 20 μL DMSO solution, serially diluted 3 times to 8 intermediate concentrations; then the intermediate concentrations of the compound were took to the test buffer, diluted 200 times to get the final concentration to be tested, 80 μL was took and added to the test plate.
Each concentration set 3 duplicates.
The excitement effect of the compound was calculated by the following formula: […]

[1] = Pharmacokinetics and cerebral blood ratio after single administration in male ICR mice; type: in vivo; details: for AUC(0-inf) / AUC(0-t) / Cmax / half-life / Tmax: plasma
Protocol: Take a healthy male ICR mouse (weight range: 18-22 grams in), grouping, 24 mice/group, and 3 mice/time point, fasting for more than 12 hours (only oral administration group), administration, blood was collected by cardiac puncture at time points 0.083 (only iv), 0.25, 0.5, 1, 2, 4, 6 (only po), 8 and 24 hours, at least 0.3 mL of whole blood was collected to EDTA-K2 anti-coagulation tube, within half an hour, plasma was taken by centrifuge (6000 revolutions, 8 minutes, 4° C.), frozen at −20° C. for later use. At the same time, brain tissue was collected in the oral group. After being rinsed with the physiological saline, the water absorbing paper was used to dry, weighed, and frozen at −20° C. for later use.

SD rats = assay: Safety research: single tail vein injection toxicity, maximum tolerated dose; type: in vivo; details: male SD rats; for Maximum tolerated dose: observed 48 hours
Protocol: (§1) Male Sprague-Dawley (SD) rats (SPF grade) were selected, divided into groups (3 rats per group), and administered via tail vein injection. Single administration, observed for 48 hours after administration. During the experiment, two cage-side observations and two detailed clinical observations were performed every day (observation was carried out before and 2 hours after the administration on the day of administration). Toxicity study animals were weighed and recorded every day, and food consumption of each animal for 24±1 hours was measured and recorded every day. At the end of the experiment (D3), euthanasia was performed by carbon dioxide inhalation anesthesia and the death of the animal was ensured by abdominal aorta/venous bleeding, and gross anatomy was performed and recorded.

[2] = as above; type: in vivo; details: rat, in vivo, male SD rats, observed 48 hours
Protocol: as §1

[3] = CHO-KCNQ2 cells, fluorescence, FDSS/μCELL, read-out: EC50

SMILES: Cc1cc2c(c(C)c1NC(=O)CC(C)(C)C)CCCCN2Cc1ccc(F)cc1 [Compound A1, N-(1-(4-fluorobenzyl)-6,8-dimethyl-2,3,4,5-tetrahydro-1H-benzazepine-7-yl)-3,3-dimethylbutanamide]
- EC50 (KCNQ2 potassium channel): 83 nM
- F ([1]; gavage 1 mg/kg vs intravenous 0.3 mg/kg): 56.9%
- AUC(0-inf) ([1]; mouse, intravenous 0.3 mg/kg): 74 ng·h/mL
- AUC(0-t) ([1]; mouse, intravenous 0.3 mg/kg): 73 ng·h/mL
- Cmax ([1]; mouse, intravenous 0.3 mg/kg): 110 ng/mL
- half-life ([1]; mouse, intravenous 0.3 mg/kg): 5.32 h
- AUC(0-inf) ([1]; mouse, po, gavage 1 mg/kg): 139 ng·h/mL
- AUC(0-t) ([1]; mouse, po, gavage 1 mg/kg): 138 ng·h/mL
- Cmax ([1]; mouse, po, gavage 1 mg/kg): 94.4 ng/mL
- Tmax ([1]; mouse, po, gavage 1 mg/kg): 0.5 h
- half-life ([1]; mouse, po, gavage 1 mg/kg): 5.42 h
- Maximum tolerated dose (SD rats): MTD > 1 mg/kg

SMILES: Cc1cc2c(c(C)c1NC(=O)CCC1CCCC1)CCCCN2Cc1ccc(F)cc1 [Compound A2, 3-cyclopentyl-N-(1-(4-fluorobenzyl)-6,8-dimethyl-2,3,4,5-tetrahydro-1H-benzazepine-7-yl)propionamide]
- EC50 (KCNQ2 potassium channel): 37 nM
- Maximum tolerated dose (SD rats): MTD > 1 mg/kg

- EC50 (KCNQ2 potassium channel; [3]): 271 nM
SMILES: CCCC(=O)Nc1c(C)cc2c(c1C)CCCCN2Cc1ccc(F)cc1 [Compound A3, N-(1-(4-fluorobenzyl)-6,8-dimethyl-2,3,4,5-tetrahydro-1H-benzazepine-7-yl)butanamide]

- EC50 (KCNQ2 potassium channel; [3]): 165 nM
- F ([1]; gavage 2.5 mg/kg vs intravenous 0.5 mg/kg): 43.39%
- Kp at 1 h ([1]; mouse, brain, single oral 2.5 mg/kg, 1 h): 1.1
- Kp at 2 h ([1]; mouse, brain, single oral 2.5 mg/kg, 2 h): 1.1
- Kp at 4 h ([1]; mouse, brain, single oral 2.5 mg/kg, 4 h): 1.3
- Kp at 8 h ([1]; mouse, brain, single oral 2.5 mg/kg, 8 h): 1.1
- AUC(0-inf) ([1]; mouse, intravenous 0.5 mg/kg): 255 ng·h/mL
- AUC(0-t) ([1]; mouse, intravenous 0.5 mg/kg): 235 ng·h/mL
- Cmax ([1]; mouse, intravenous 0.5 mg/kg): 294 ng/mL
- half-life ([1]; mouse, intravenous 0.5 mg/kg): 1.9 h
- AUC(0-inf) ([1]; mouse, po, gavage 2.5 mg/kg): 541 ng·h/mL
- AUC(0-t) ([1]; mouse, po, gavage 2.5 mg/kg): 510 ng·h/mL
- Cmax ([1]; mouse, po, gavage 2.5 mg/kg): 257 ng/mL
- Tmax ([1]; mouse, po, gavage 2.5 mg/kg): 0.5 h
- half-life ([1]; mouse, po, gavage 2.5 mg/kg): 1.95 h
SMILES: C#CC(C)(C)CC(=O)Nc1c(C)cc2c(c1C)CCCCN2Cc1ccc(F)cc1 [Compound A4, N-(1-(4-fluorobenzyl)-6,8-dimethyl-2,3,4,5-tetrahydro-1H-benzazepine-7-yl)-3,3-dimethylpent-4-ynamide]

- EC50 (KCNQ2 potassium channel; [3]): 133 nM
SMILES: Cc1cc2c(c(C)c1NC(=O)CC1(C)CC1)CCCCN2Cc1ccc(F)cc1 [Compound A5, N-(1-(4-fluorobenzyl)-6,8-dimethyl-2,3,4,5-tetrahydro-1H-benzazepine-7-yl)-2-(1-methylcyclopropyl)acetamide]

SMILES: Cc1cc2c(c(C)c1NC(=O)CC(C)(C)C)CCCCN2Cc1ccc(Cl)s1 [Compound A6, N-(1-((5-chlorothiophene-2-yl)methyl)-6,8-dimethyl-2,3,4,5-tetrahydro-1H-benzazepine-7-yl)-3,3-dimethylbutamide]
- EC50 (KCNQ2 potassium channel): 21 nM
- Maximum tolerated dose (SD rats): MTD > 1 mg/kg

SMILES: Cc1cc2c(c(C)c1NC(=O)CC(C)(C)C)CCCCN2Cc1ccc(F)s1 [Compound A7, N-(1-((5-fluorothiophene-2-yl)methyl)-6,8-dimethyl-2,3,4,5-tetrahydro-1H-benzazepine-7-yl)-3,3-dimethylbutamide]
- EC50 (KCNQ2 potassium channel): 16 nM
- Maximum tolerated dose (SD rats): MTD > 1 mg/kg

SMILES: Cc1cc2c(c(C)c1NC(=O)CCC1CCCC1)CCCCN2Cc1ccc(F)s1 [Compound A8, 3-cyclopentyl-N-(1-((5-fluorothiophene-2-yl)methyl)-6,8-dimethyl-2,3,4,5-tetrahydro-1H-benzazepine-7-yl)propionamide]
- EC50 (KCNQ2 potassium channel): 48 nM
- Maximum tolerated dose (SD rats): MTD > 1 mg/kg

SMILES: Cc1cc2c(c(C)c1NC(=O)CC(C)(C)C)CCCN2Cc1ccc(F)cc1 [Compound B1, reference compound]
- MTD at 48 h [2]: 0.06 to 0.3 mg/kg
- toxicity (SD rats; dose of 0.3 mg/kg): unacceptable toxicity

SMILES: Cc1cc2c(c(C)c1NC(=O)CC(C)(C)C)CCN2Cc1ccc(F)cc1 [Compound B2, reference compound]
- MTD at 48 h [2]: 0.3 to 1 mg/kg
- toxicity (SD rats; dose of 1 mg/kg): unacceptable toxicity
